From patent publication US20060258729A1, “Antibacterial pyrazole carboxylic acid hydrazides” (priority 2002, published 2006)
pIC50: −log10 of the molar value. ≈ marks a conversion by molar mass, not a printed value. Entries after “also recorded” stand apart in the source; their conditions may differ.

Key:
S. aureus Smith strain = test: Inhibition of bacterial growth (MIC), Sm; assay type: cell-based, Staphylococcus aureus; details: 16 to 18 hours, 37° C.; for MIC: Staphylococcus aureus, read-out: Minimum Inhibitory Concentration for Bacterial Growth, Sm
Method: (§1) Each compound was assayed against a panel of a strain of Bacillus subtilis, of strains of antibiotic-resistant and sensitive Enterococcus and Staphylococcus species, and of a strain of the Gram-negative bacterium Escherichia coli. Compounds were dissolved in DMSO at 100× the desired highest concentration and added to one well of a 96-well microassay plate. Two-fold serial drug dilutions were made across the plate in DMSO to yield 11 concentrations (usually 80-0.078 μg/mL) plus an untreated control. Drugs were then transferred to fresh plates using 1.5 μL per well. Log phase cultures were diluted to yield a concentration of 1×10^5 colony forming units/mL in either LB or BHI medium and transferred to the plates containing drug for a final volume of 150 μL. Each well, including the DMSO controls, contained a final concentration of 1% DMSO. Plates were incubated with shaking at 37° C. for 16 to 18 hours. Cell growth was determined by measuring optical density (570 nm, 1 cm path length) in a microplate reader. MIC (minimum inhibitory concentration) is equivalent to the lowest concentration at which growth is not observed. The bacterial strains and MIC determinations have been well characterized and are described elsewhere (Tarantino et al., Antimicrob. Agents Chemother., 43: 1982-1987 (1999); Daly et al., Antimicrob. Agents Chemother., 44: 2217-2221 (2000)).

[1] = system: E. faecium clinical isolate; test: Inhibition of bacterial growth (MIC), Efcm; assay type: cell-based; details: 16 to 18 hours, 37° C.; for MIC: Enterococcus faecium, read-out: Minimum Inhibitory Concentration for Bacterial Growth, Efcm
Method: as §1

B. subtilis pol IIIE [2] = molecular target: T1, B. subtilis pol IIIE (Bacillus subtilis, UniProt O34623); test: DNA polymerase assay, B. subtilis pol IIIE; assay type: biochemical; details: for pIC50: B. subtilis Pol IIIE IC50, 4 dNTPs, in the presence of all four dNTP substrates
T1 construct: made in house
T1 sequence (O34623 whole entry): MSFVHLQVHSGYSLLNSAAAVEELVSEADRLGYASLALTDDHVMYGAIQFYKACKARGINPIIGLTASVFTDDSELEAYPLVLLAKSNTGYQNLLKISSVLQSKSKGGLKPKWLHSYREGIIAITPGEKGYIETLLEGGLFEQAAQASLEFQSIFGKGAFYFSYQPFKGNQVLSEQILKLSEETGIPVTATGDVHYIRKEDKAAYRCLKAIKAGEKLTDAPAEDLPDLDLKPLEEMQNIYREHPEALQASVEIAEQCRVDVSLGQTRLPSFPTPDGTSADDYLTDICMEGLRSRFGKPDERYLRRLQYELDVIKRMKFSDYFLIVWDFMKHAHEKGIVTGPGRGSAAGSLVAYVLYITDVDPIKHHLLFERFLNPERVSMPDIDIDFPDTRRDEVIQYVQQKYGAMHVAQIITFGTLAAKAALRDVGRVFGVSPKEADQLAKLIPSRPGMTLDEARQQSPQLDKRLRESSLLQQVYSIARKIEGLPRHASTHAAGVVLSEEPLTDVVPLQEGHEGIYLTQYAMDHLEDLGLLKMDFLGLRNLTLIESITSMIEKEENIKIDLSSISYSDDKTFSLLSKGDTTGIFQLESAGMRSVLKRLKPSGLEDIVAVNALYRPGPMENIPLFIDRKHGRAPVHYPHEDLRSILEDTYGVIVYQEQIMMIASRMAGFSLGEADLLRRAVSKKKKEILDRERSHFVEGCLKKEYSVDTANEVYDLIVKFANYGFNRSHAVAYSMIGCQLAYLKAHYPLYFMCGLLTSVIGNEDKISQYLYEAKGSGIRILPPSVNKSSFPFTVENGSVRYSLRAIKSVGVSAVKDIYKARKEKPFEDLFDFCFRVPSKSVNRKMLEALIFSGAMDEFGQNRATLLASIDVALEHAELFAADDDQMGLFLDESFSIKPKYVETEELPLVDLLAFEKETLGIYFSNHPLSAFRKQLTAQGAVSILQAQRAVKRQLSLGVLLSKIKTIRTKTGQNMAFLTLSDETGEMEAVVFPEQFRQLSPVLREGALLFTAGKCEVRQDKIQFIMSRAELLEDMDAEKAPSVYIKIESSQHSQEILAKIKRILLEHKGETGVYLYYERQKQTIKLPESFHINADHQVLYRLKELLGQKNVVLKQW
Method: (§2) Recombinant, purified pol IIIC and pol IIIE from Bacillus subtilis were obtained using known methods (Hammond et al., Gene 98: 29-36 (1991), regarding pol IIIC; Barnes et al., J. Bacteriol. 184, 3834-3838 (2002), regarding pol IIIE). Recombinant, purified pol IIIE from Escherichia coli was obtained from a commercial source (Enzyco, Denver, Colo.). The enzyme assays were performed in 96-well plate format using the same assay mix for all three enzymes. Each 25 μL assay contained 30 mM Tris, pH 7.5, 10 mM magnesium acetate, 4 mM dithiothreitol, 20% glycerol, with 10 μM dATP, dCTP, dGTP and dTTP (3H-labelled at 1.44 Ci/mmole) and 0.4 mg/mL activated calf thymus DNA as substrates. Dilutions of compounds were added to the plate in 1% DMSO (1 μL/well). Assays were initiated by the addition of 0.025 to 0.06 units of enzyme (1 unit is the amount required to incorporate 250 pmoles of [^3H] dTMP in a standard assay), incubated for 10 min at 30° C. and terminated by the addition of 200 μL of cold 10% trichloroacetic acid, 10 mM sodium pyrophosphate. Precipitated labeled DNA was collected on glass fiber filter plates that had been pre-wet with ice cold 1 M HCl, 100 mM sodium pyrophosphate. The plates were washed with the HCl solution followed by ice cold 90% ethanol and then dried and counted in a liquid scintillation counter. The calculated IC50 is the concentration needed to inhibit 50% of the DNA polymerase activity in the presence of all four dNTP substrates. In addition, percent inhibition values are calculated as the percent reduction in the activity of a DMSO (diluent) control.

[3] = system: methicillin-resistant S. aureus strain 1094; test: Inhibition of bacterial growth (MIC), MRSA; assay type: cell-based, Staphylococcus aureus; details: 16 to 18 hours, 37° C.; for MIC: Staphylococcus aureus, MRSA, read-out: Minimum Inhibitory Concentration for Bacterial Growth, MRSA
Method: as §1

test strains of bacteria = test: Inhibition of bacterial growth, whole panel of test strains; assay type: cell-based
Method: as §1

[4] = system: vancomycin-resistant Enterococcus strain B42762; test: Inhibition of bacterial growth (MIC), VRE; assay type: cell-based; details: 16 to 18 hours, 37° C.; for MIC: VRE, read-out: Minimum Inhibitory Concentration for Bacterial Growth, VRE
Method: as §1

[5] = system: Enterococcus faecalis strain 29212; test: Inhibition of bacterial growth (MIC), Efcl; assay type: cell-based; details: 16 to 18 hours, 37° C.; for MIC: read-out: Minimum Inhibitory Concentration for Bacterial Growth, Efcl
Method: as §1

[6] = system: Bacillus subtilis strain BD54; test: Inhibition of bacterial growth (MIC), Bs; assay type: cell-based; details: 16 to 18 hours, 37° C.; for MIC: read-out: Minimum Inhibitory Concentration for Bacterial Growth, Bs
Method: as §1

[7] = system: Escherichia coli strain J53; test: Inhibition of bacterial growth (MIC), Ec; assay type: cell-based; details: 16 to 18 hours, 37° C.; for MIC: read-out: Minimum Inhibitory Concentration for Bacterial Growth, Ec
Method: as §1

[8] = system: Staphylococcus aureus strain IP 8; test: Inhibition of bacterial growth (MIC), Sa; assay type: cell-based; details: 37° C.; for MIC: IP8, 16 to 18 hours, read-out: Minimum Inhibitory Concentration for Bacterial Growth, Sa
Method: as §1

E. coli pol IIIE = molecular target: T2, E. coli pol IIIE (Escherichia coli, UniProt P10443); test: DNA polymerase assay, E. coli pol IIIE; assay type: biochemical; details: 80 μg/mL (190-260 μM) final concentration, all four dNTPs
T2 construct: purchased Enzyco, Denver, Colo
T2 sequence (P10443 whole entry): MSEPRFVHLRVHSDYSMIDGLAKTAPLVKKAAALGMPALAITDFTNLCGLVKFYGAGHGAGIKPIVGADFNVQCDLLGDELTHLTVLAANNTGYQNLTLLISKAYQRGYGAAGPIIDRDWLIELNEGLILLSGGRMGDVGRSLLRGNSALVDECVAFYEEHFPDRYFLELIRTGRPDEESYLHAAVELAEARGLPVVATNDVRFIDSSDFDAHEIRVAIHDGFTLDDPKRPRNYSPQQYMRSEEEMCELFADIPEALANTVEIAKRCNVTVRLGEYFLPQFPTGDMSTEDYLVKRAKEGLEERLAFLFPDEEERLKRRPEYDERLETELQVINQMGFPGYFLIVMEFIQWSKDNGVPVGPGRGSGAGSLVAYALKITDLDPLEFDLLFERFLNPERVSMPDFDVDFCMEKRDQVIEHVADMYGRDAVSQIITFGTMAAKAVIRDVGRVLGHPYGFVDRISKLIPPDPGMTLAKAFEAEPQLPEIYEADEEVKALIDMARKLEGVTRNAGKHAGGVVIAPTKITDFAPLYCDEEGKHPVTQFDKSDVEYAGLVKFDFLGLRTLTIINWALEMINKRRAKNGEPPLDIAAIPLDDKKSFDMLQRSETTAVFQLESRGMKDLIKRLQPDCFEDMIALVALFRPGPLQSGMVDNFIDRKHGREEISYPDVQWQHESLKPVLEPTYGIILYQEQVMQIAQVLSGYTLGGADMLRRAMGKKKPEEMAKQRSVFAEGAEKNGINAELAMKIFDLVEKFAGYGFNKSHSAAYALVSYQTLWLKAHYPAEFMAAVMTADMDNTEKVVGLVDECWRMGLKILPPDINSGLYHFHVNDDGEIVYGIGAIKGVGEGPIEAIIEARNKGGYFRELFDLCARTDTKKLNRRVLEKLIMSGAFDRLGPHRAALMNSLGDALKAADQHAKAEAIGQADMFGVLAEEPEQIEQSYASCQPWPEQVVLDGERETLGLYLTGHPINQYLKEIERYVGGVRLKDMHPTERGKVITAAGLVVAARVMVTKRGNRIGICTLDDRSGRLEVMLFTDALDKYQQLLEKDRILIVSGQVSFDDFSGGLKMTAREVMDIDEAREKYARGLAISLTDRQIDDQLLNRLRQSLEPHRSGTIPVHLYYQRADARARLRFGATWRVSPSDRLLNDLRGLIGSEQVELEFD
Method: as §2

B. subtilis pol IIIE [9] = molecular target: T1, B. subtilis pol IIIE; test: DNA polymerase assay, B. subtilis pol IIIE; assay type: biochemical
B. subtilis pol IIIC [10] = molecular target: T3, B. subtilis pol IIIC (Bacillus subtilis, UniProt P13267); test: DNA polymerase assay, B. subtilis pol IIIC; assay type: biochemical; details: for inhibition at 80 µg/mL: read-out: Percent Enzymatic Inhibition B. subtilis pol IIIC
T3 construct: made in house
T3 sequence (P13267 whole entry): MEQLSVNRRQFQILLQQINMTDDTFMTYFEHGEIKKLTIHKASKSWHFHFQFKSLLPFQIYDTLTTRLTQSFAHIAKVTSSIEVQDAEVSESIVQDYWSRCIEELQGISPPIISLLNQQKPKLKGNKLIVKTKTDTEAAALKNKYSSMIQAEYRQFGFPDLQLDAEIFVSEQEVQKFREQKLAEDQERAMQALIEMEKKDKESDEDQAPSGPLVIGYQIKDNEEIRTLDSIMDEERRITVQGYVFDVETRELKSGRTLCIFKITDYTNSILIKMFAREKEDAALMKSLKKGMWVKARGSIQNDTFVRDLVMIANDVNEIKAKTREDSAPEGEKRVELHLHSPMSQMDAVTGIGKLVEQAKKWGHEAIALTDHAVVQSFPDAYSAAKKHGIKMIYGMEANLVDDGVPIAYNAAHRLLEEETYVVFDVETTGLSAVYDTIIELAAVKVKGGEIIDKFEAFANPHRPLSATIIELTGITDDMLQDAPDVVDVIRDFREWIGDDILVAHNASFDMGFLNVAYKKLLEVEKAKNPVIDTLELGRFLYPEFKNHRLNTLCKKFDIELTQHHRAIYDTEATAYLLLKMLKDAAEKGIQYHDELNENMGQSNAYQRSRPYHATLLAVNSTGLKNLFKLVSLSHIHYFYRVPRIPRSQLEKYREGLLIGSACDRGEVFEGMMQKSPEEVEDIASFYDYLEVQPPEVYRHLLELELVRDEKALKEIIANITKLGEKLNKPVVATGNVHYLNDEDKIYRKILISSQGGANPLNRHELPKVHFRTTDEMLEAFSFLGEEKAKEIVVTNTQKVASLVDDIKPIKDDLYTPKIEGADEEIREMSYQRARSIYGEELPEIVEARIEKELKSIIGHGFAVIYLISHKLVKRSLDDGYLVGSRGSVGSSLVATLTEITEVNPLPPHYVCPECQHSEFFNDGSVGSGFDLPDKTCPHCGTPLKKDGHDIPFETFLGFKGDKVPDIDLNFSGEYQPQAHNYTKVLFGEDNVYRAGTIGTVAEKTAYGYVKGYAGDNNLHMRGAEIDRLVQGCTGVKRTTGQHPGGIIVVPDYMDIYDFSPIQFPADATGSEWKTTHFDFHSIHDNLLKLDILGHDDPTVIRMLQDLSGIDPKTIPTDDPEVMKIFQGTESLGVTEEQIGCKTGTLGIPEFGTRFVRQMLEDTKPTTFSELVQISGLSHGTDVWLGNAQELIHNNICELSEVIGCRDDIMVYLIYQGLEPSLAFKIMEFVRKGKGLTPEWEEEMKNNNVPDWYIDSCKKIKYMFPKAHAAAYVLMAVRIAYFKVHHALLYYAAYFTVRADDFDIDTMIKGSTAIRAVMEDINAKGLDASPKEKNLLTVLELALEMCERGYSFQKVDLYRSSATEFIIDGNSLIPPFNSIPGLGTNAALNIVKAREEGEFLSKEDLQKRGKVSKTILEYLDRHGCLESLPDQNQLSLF
Method: as §2, with “Each 25 μL assay contained 30 mM Tris, pH 7.5, 10 mM magnesium acetate, 4 mM dithiothreitol, 20% glycerol, with 10 μM dATP, dCTP, dGTP and dTTP (3H-labelled at 1.44 Ci/mmole) and 0.4 mg/mL activated calf thymus DNA as substrates.” left out, “The calculated IC50 is the concentration needed to inhibit 50% of the DNA polymerase activity in the presence of all four dNTP substrates.” left out

B. subtilis pol IIIC [11] = molecular target: T3, B. subtilis pol IIIC; test: Classical enzyme kinetic analyses (Lineweaver-Burk) with pol IIIC; assay type: biochemical; details: variable substrate dGTP; Compound 17 at 0, 20, 60 μM; HB-EMAU at 0, 1.6, 4.8 μM
Method: The variable substrate in the experiments for FIGS. 1A and 1B was dGTP. See text for details.
Classical enzyme kinetic analyses were performed with Compound 17 and pol IIIC in which reaction velocity was measured as a function of each substrate (dGTP) concentration at several inhibitor concentrations (0, 20, and 60 μM). The results are graphed in a double reciprocal plot by the method of Lineweaver and Burk in FIG. 1A and show the effect of varying dGTP.
Compounds of the anilinouracil (AU) family, classical DNA polymerase inhibitors, inhibit pol IIIC strictly by “competitive” inhibition. An example is shown in the double reciprocal plot in FIG. 1B for the compound N3-hydroxybutyl 6-(3′-ethyl-4′-methylanilino) uracil (HB-EMAU), tested at 0, 1.6, and 4.8 μM. Such AU compounds compete with the dGTP substrate for binding to the enzyme (Clements et al., J. Biol. Chem. 250, 522-526 (1975)). “Noncompetive” inhibitors are exemplified by the class of HIV reverse transcriptase inhibitors, 4,5,6,7-tetrahydro-5-methylimidazo[4,5,1-jk][1,4]benzodiazepin-2(1H)-one (TIBO), i.e., TIBO compounds bind a site adjacent to the active site (Spence et al., Science 267, 988-993 (1995)). In contrast, the data in FIG. 1A clearly indicate that Compound 17, a pyrazole carboxylic acid hydrazide, inhibits pol IIIC by an “uncompetitive” mechanism.

[12] = B. subtilis Pol IIIE IC50, −dATP, in the absence of dATP
[13] = B. subtilis Pol IIIE IC50, −dCTP, in the absence of dCTP
[14] = B. subtilis Pol IIIE IC50, −dGTP, in the absence of dGTP
[15] = 80 μg/mL (190-260 μM) final concentration, all four dNTPs
[16] = B. subtilis Pol IIIC IC50, 4 dNTPs, in the presence of all four dNTP substrates
[17] = B. subtilis Pol IIIC IC50, −dATP, in the absence of dATP
[18] = B. subtilis Pol IIIC IC50, −dCTP, in the absence of dCTP
[19] = B. subtilis Pol IIIC IC50, −dGTP, in the absence of dGTP

Row | SMILES | MIC (S. aureus Smith strain) [µg/mL] | MIC [1] [µg/mL] | pIC50 (B. subtilis pol IIIE [2]) | MIC [3] [µg/mL] | Inhibition of bacterial growth, result in words (rank of MIC values) (test strains of bacteria) | MIC [4] [µg/mL] | MIC [5] [µg/mL] | MIC [6] [µg/mL] | MIC [7] [µg/mL] | MIC [8] [µg/mL] | pIC50 (B. subtilis pol IIIE [9]; [12]) | pIC50 (B. subtilis pol IIIE [9]; [13]) | pIC50 (B. subtilis pol IIIE [9]; [14]) | inhibition at 80 µg/mL (B. subtilis pol IIIC [10]; [15]) [%] | pIC50 (B. subtilis pol IIIC [10]; [16]) | pIC50 (B. subtilis pol IIIC [10]; [17]) | pIC50 (B. subtilis pol IIIC [10]; [18]) | pIC50 (B. subtilis pol IIIC [10]; [19]) | also measured
1 | COc1cc(C=NNC(=O)c2cc(-c3ccccc3)n[nH]2)cc(OC)c1OC [Compound 1] | 5 (≈ 13.1 µM) | 20 (≈ 52.6 µM) | 3.78 | 10 (≈ 26.3 µM) | second | 20 (≈ 52.6 µM) | 10 (≈ 26.3 µM) | 3 (≈ 7.89 µM) | > 80 | 3 (≈ 7.89 µM) | 4.12 | 4.21 | 4.29 | 14.3 | 3.73 | 5.00 | 4.36 | 4.85 | inhibition at 80 µg/mL (E. coli pol IIIE; read-out: Percent Enzymatic Inhibition E. coli pol IIIE): 0.4%
2 | CCOc1cccc(-c2cc(C(=O)NN=Cc3cccc(OC)c3O)[nH]n2)c1 [Compound 7] | – | – | – | – | able to inhibit growth | – | – | – | – | – | – | – | – | – | – | – | – | – | Minimum Inhibitory Concentration for Bacterial Growth, Sm (S. aureus Smith strain): 40 µg/mL; Minimum Inhibitory Concentration for Bacterial Growth, Efcm [1]: >80 µg/mL; Percent Enzymatic Inhibition B. subtilis pol IIIE (B. subtilis pol IIIE [2]; [15]): not sufficient to show a significant inhibition; also recorded: Inactive; Minimum Inhibitory Concentration for Bacterial Growth, MRSA [3]: 30 µg/mL; Minimum Inhibitory Concentration for Bacterial Growth, VRE [4]: >80 µg/mL; Minimum Inhibitory Concentration for Bacterial Growth, Efcl [5]: >80 µg/mL; Minimum Inhibitory Concentration for Bacterial Growth, Bs [6]: 80 µg/mL; Minimum Inhibitory Concentration for Bacterial Growth, Ec [7]: >80 µg/mL; Minimum Inhibitory Concentration for Bacterial Growth, Sa ([8]; 16 to 18 hours): 30 µg/mL; Percent Enzymatic Inhibition E. coli pol IIIE (E. coli pol IIIE): not sufficient to show a significant inhibition; also recorded: Inactive; Percent Enzymatic Inhibition B. subtilis pol IIIC (B. subtilis pol IIIC [10]; [15]): not sufficient to show a significant inhibition; also recorded: Inactive
3 | COc1ccc(-c2cc(C(=O)NN=Cc3ccc(OC)c(OC)c3)[nH]n2)cc1 [Compound 18] | 5 (≈ 13.1 µM) | 20 (≈ 52.6 µM) | 3.56 | 10 (≈ 26.3 µM) | third place | 20 (≈ 52.6 µM) | 40 (≈ 105 µM) | 2.5 (≈ 6.57 µM) | > 80 | 5 (≈ 13.1 µM) | 3.46 | < 3.00 | < 3.00 | > 20 | 3.04 | 4.64 | 5.19 | 5.26 | inhibition at 80 µg/mL (B. subtilis pol IIIE [2]; 80 μg/mL (190-260 μM) final concentration, all four dNTPs, read-out: Percent Enzymatic Inhibition B. subtilis pol IIIE): > 20%
4 | CCc1cc(Nc2cc(=O)n(CCCCO)c(=O)[nH]2)ccc1C [HB-EMAU, N3-hydroxybutyl 6-(3′-ethyl-4′-methylanilino) uracil, reference compound] | – | – | – | – | – | – | – | – | – | – | – | – | – | – | – | – | – | – | Mechanism of inhibition of pol IIIC (double reciprocal plot) (B. subtilis pol IIIC [11]): competitive inhibition mechanism
